Test results published in patent US20120040956A1, “INHIBITORS OF HIF-1 PROTEIN ACCUMULATION” (INTERMED DISCOVERY GMBH, priority 2008, published 2012).

Key:
HIF-1 = test: HIF-1-dependent luciferase reporter gene activity in 293T cells under hypoxia; format: cell-based, human
Description: A HIF-1-dependent luciferase reporter gene was transfected into 293T cells by transfection with Rotifect™ (Trademarked by Carl Roth GmbH; Karlsruhe, Germany) or alternatively into Jurkat T cells by electroporation. Both cell lines were transfected with a HIF-1-dependent reporter gene. The next day, cells were preincubated for 1 h with the indicated, submicromolar concentrations of the test compounds and then incubated for further 8 h under normoxic or hypoxic (1% O2) conditions. After that, cells were harvested followed by the analysis of luciferase activity in a luminometer.
A HIF-1-dependent luciferase reporter gene was transfected into 293T cells. The next morning, cells were pretreated for 1 h with the indicated concentrations of compounds, followed by induction of hypoxia (hypoxia chamber) for 8 h. Subsequently cells were harvested and lyzed. Luciferase activity in cell extracts was measured in a luminometer (Duo Lumat LB 9507, Berthold) by injecting 20 microliter of assay buffer to 20 microliter of extract. Light emission was measured for 10 s, relative light units are given.
After transfection of 293T cells with a HIF-1-dependent luciferase reporter gene, cells were further incubated under normoxic or hypoxic (8 h, 1% O2) conditions as shown in FIG. 4. Effectively blocking concentrations of the IMDs (250 nM each) were added either 1 hour prior to hypoxia or 2 and 4 hours after induction of hypoxia.

HIF-1α mRNA = test: Hif-1α mRNA expression by real-time PCR; format: cell-based; details: human cells, 250 nM for 3 h, normoxic or hypoxic (45 minutes, 1% O2)
Description: In order to investigate whether the compounds of the invention do exert their HIF-1-1 suppressive action via inhibition of HIF-1-1 transcription the compounds were tested for their effects on HIF-1α mRNA production. In all experiments, human cells were exposed to efficiently blocking concentrations (250 nM) of the test compounds for 3 h. Then cells were further cultivated under normoxic or hypoxic conditions (45 minutes, 1% O2) respectively. Afterwards cell samples were harvested and RNA was extracted. cDNA was synthesized using specific primers and the PE Applied Biosystems Reverse Transcription Reagents. Real-time PCR was performed by using the SYBR Green I detection chemistry (Applied Biosystems) and an ABI Prism 7300 system. The expression of Hif-1α was quantified and results were normalized to Hprt1 and β-Actin (“housekeeping-gene”) expression. The relative abundance of the different genes was calculated by the comparative CT method. HIF-1α transcription of normoxic control cells was arbitrarily set to 1. […] Therefore an effect of IMD-compounds on HIF-1-dependent gene expression seems not to be mediated on HIF-1α transcription (FIG. 5).

HIF-1α protein = test: Hypoxia induced HIF-1α protein accumulation in 293T cells (immunoblotting); format: cell-based, human; details: 250 nM, 1 h preincubation, hypoxia 4 h, 1% O2
Description: Effects of IMD-026259, IMD-026260 and IMD-019064 on the stabilisation/accumulation of HIF-1α protein were investigated. 293T cells were preincubated with the indicated concentrations of all three compounds. After 1 h of pre-incubation, 293T cells were pre-incubated with the indicated concentrations of compounds and then further incubated under normoxic or hypoxic (4 h, 1% O2) conditions respectively. After lysis of cells in 1×SDS sample buffer and sonication, the samples were analyzed for HIF-1α abundance by immunoblotting.

[1] = system: cell-free protein translation (BMV mRNA, ribosomes); test: Cell-free protein translation of Brome mosaic virus (BMV) mRNA with ribosomes; format: biochemical; details: relevant (nM) concentrations, SDS-PAGE
Description: The effect of IMD-019064 on cell-free protein translation in vitro was investigated (see also assay principle in FIG. 8). Brome mosaic virus (BMV) mRNA encoding for 4 different viral proteins was incubated with ribosomes in the presence and absence of IMD-019064 (FIG. 9a), IMD-026259, IMD-026260 (FIG. 9b), or cycloheximide (Chx, 10 μM) (positive control) and the formed proteins analyzed by SDS-PAGE.
Panels show representative SDS-PAGE protein gels. Vehicle-containing translation reactions (Veh) represent 100% translation efficacy, while Cycloheximide (Chx; 10 μg/ml) a known inhibitor of protein translation that was used as a positive control does show significant protein reduction.

[2] = system: human vasculature (CD34 positive vessels) from transplanted HUVECs; test: Spheroid-based in vivo angiogenesis assay in SCID mice; details: 0.3 mg/ml p.o. every 3rd day, pvalue=0.0001
Source text: Human endothelial cells (ECs; HUVECs) are applied subcutaneously in (n=10) SCID mice embedded in extracellular matrix components in the presence of smooth muscle cells (SMCs) and fibroblasts (NHDFs). The transplanted human ECs (EC spheroids in combination with ECs in suspension) form a complex and perfused three dimensional network of capillaries of human origin that is anastomosed (connected with) with the mouse vasculature and host (mouse) pericyte-covered. The quality of the newly formed vasculature is monitored by micro vessel density counting. Aim of the study is to investigate the anti-angiogenic potential of the test items in the spheroid-based in vivo angiogenesis assay. […]
In the standard assay (with VEGF-A and FGF-2 stimulation and only ECs) the first perfused vessels are usually detected at day 4 to day 6. […]
For histological examination of the human vasculature, paraffin sections (thickness=8-10 μm) were prepared from all plugs. Blood vessel formation was detected by staining the sections for human CD34 (NCL-END, Menarini, Berlin, Germany). Three sections per plug were analysed and three images were taken from each section at a magnification of 200× using the Eclipse TE2000-U microscope (Nikon, Kanagawa, Japan). The area analyzed per section (three images) was 0.44 mm^2. […]

CNCCOc1ccc2c(c1)OC1(c3ccc(Cl)cc3)C(c3ccccc3)CC(O)C21O (stereo not drawn) [IMD-026260, (1,3a,8b)-3a-(4-chlorophenyl)-6-(2-(methylamino)ethoxy)-3-phenyl-2,3,3a,8b-tetrahydro-1H-benzo[d]cyclopenta[b]furan-1,8b-diol]
time-dependency of inhibition of HIF-1-dependent luciferase expression (HIF-1; 250 nM, added 4 hours after induction of hypoxia (8 h, 1% O2)): able to inhibit HIF-1-dependent luciferase expression even when added 4 hours after hypoxic induction | IC50 (HIF-1; Homo sapiens, HEK-293T, 1 h pretreatment, hypoxia 8 h, read-out: IC50, HIF-1 luciferase inhibitory activity): 18 nM | effect on Hif-1α mRNA production (HIF-1α mRNA): did not show any effects | block of HIF-1α protein accumulation (HIF-1α protein): almost completely block | effect on in vitro protein translation [1]: No significant effect | reduction of human vessel number compared to a vehicle control [2]: 42%
